Measurements: patent US11987576B2, “Compositions and methods for decreasing, or preventing or reversing gain of, skin pigmentation in a mammalian subject” (THE TRUSTEES OF THE UNIVERSITY OF PENNSYLVANIA, priority 2015, dated 2024)

Tests used:
3-D organotypic skin [1] = test: Fontana-Masson melanin staining of 3-D organotypic skin; type: cell-based, human; conditions: vs vehicle
PR = target: T1, PR (Homo sapiens, UniProt P06401); conditions: cited from earlier work
T1 sequence (P06401 1-933): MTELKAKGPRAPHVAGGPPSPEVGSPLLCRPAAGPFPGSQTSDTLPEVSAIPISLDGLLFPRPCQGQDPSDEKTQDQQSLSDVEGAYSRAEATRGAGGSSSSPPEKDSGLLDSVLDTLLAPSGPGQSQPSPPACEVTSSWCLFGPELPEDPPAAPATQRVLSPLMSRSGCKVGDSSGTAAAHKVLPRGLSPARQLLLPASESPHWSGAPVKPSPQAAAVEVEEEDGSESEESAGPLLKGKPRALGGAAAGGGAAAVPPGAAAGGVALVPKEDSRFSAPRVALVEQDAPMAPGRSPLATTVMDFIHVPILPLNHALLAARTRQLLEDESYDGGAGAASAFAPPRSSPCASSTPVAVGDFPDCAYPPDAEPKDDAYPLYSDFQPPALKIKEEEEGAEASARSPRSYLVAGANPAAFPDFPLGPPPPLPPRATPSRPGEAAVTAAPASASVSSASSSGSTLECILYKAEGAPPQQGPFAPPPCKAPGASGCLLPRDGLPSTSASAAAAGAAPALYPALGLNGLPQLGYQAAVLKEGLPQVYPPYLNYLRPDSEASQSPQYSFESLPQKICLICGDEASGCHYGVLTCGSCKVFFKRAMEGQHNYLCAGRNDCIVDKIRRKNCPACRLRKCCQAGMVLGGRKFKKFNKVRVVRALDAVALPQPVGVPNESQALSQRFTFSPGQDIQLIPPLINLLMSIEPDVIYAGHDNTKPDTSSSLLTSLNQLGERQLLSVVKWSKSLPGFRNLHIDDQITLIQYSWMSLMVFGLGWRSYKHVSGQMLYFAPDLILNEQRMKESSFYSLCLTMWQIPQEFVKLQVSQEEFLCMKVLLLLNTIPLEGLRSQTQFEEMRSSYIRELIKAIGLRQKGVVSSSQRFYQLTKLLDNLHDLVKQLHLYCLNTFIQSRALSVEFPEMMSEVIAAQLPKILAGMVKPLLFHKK

ER = conditions: cited from earlier work
3-D organotypic skin [2] = test: MITF immunohistochemistry of organotypic skin (melanocyte population density); type: cell-based, human; conditions: vs vehicle
Excerpt: Formalin fixed paraffin embedded (FFPE) human skin tissue sections from organotypic tissue was stained for MITF protein expression using a primary antibody to MITF (Leica Biosystems, NCL-L-MITF, 1:15).

cAMP = cAMP ELISA on primary human melanocytes; type: cell-based
Procedure: cAMP ELISA was performed on primary human melanocytes using the Cyclic AMP XP Assay Kit (Cell Signaling Technology, #4339) following manufacturer instructions.

pCREB and MITF = test: Western blot of classical melanin pathway regulators in melanocytes; type: cell-based, human; conditions: 1 μM overnight
Procedure: Adherent cells were treated with 1 μM doses of E2 and P4 overnight, washed once with DPBS, and lysed with 1% NP-40 buffer (150 mM NaCl, 50 mM Tris, pH 7.5, 1 mM EDTA, and 1% NP-40) containing 1× protease inhibitors (Roche) and 1× phosphatase inhibitors (Roche). Lysates were quantified (Bradford assay), normalized, reduced, denatured (95° C.) and resolved by SDS gel electrophoresis on 4-15% Tris/Glycine gels (Bio-Rad). Resolved protein was transferred to PVDF membranes (Millipore) using a Semi-Dry Transfer Cell (Bio-Rad), blocked in 5% dry milk in TBS-T and probed with primary antibodies recognizing MITF (Cell Signaling Technology, #12590, 1:1000), pCREB (Cell Signaling Technology, #9198, 1:1000), CREB (Cell Signaling Technology, #9104, 1:1000), and β-Actin (Cell Signaling Technology, #3700, 1:4000). After incubation with the appropriate secondary antibody, proteins were detected using either Luminata Crescendo Western HRP Substrate (Millipore) or ECL Western Blotting Analysis System (GE Healthcare).

SMILES: C=C[C@]12CCC(=O)C=C1CC[C@H]1[C@@H]3CC[C@H](C(C)=O)[C@@]3(C)CC[C@@H]12 (relative stereo) [CH2P4, rel-(8S,9S,10S,13 S,14S,17S)-17-acetyl-13-methyl-10-vinyl-6,7,8,9,10,11,12,13,14,15,16,17-dodecahydro-1H-cyclopenta[a]phenanthren-3 (2H)-one]
- melanin production in skin tissue (3-D organotypic skin [1]): decrease in melanin production
- binding to PR (PR): does not bind

SMILES: Brc1cc2c(cc1[C@H]1Nc3ccccc3[C@@H]3C=CC[C@H]13)OCO2 (relative stereo) [G-15, rel-(3aS,4S,9bR)-4-(6-bromobenzo[d][1,3]dioxol-5-yl)-3a,4,5,9b-tetrahydro-3H-cyclopenta[c]quinoline]
- inhibitory activity against ER (ER): do not have inhibitory activity

SMILES: CC(=O)[C@H]1CC[C@H]2[C@@H]3CCC4=CC(=O)CC[C@]4(C)[C@H]3CC[C@]12C [progesterone]
- melanin production in skin tissue (3-D organotypic skin [1]): decreased melanin production by nearly half
- total melanocyte number or density (3-D organotypic skin [2]): without affecting overall melanocyte cell number
- cAMP (cAMP): decreases
- MITF protein (pCREB and MITF): decreases
- pCREB protein (pCREB and MITF): decreases
